Reference: patent US20080076824A1, “Compounds That Inhibit Replication Of Human Immunodeficiency Virus” (priority 2004, published 2008)
Structures can show the parent of a compound that is named as a salt.

Assay: Microdose study of 14C-AlphaHGA in healthy volunteers, plasma pharmacokinetics (AMS)
Format: in vivo, human
Experimental: In this example, the pharmacokinetics (PK) and oral bioavailability of AlphaHGA in adult healthy volunteers following a single ‘microdose’ in a sequence-randomized, cross-over study design (two periods 7 days apart) was determined. Clinical experiments were conducted with low-level radiolabelled (^14C) AlphaHGA administered intravenously (IV) orally (PO) with serial blood and urine samples were collected for concentration analysis utilizing accelerator mass spectrometry (AMS).
Accordingly, eight subjects were enrolled into a single dose cross-over study. The subjects were randomly assigned to one of two administration sequences. Subjects that were assigned to sequence 1 received AlphaHGA as an oral preparation first (Period 1) followed by the intravenous (IV) preparation 1 week later (Period 2). Subjects assigned to sequence 2 received AlphaHGA as an intravenous preparation first followed by the oral preparation 1 week later. Four subjects were assigned to sequence 1 and four subjects were assigned to sequence 2.
For both oral and IV doses subjects were administered 100 nCi (3.7 Kbq) of alphaHGA, which was determined to contain 1.602888×10ˆ6 fmol of ^14C. The specific activity of each dose was 46.619 MBq/mol (or 1.260 mCi/mol). A stock blend of ^14C-labelled alphaHGA was produced prior to the first study period. The actual formulations used for dosing were prepared on the morning prior to each study period. The infusion was a single bolus injection with both the infusion and flush were completed in less than 30 seconds.
Blood (5 ml) was collected following the administration of AlphaHGA orally or as an IV bolus at the following times: pre-dose (T=0) and 15, 30, 45, 60 minutes, and at 2, 3, 4, 6, 8, 10, 12, 16, 24 hours post-dose. All of the 224 scheduled blood samples were obtained. Blood specimens were drawn by intravenous in-dwelling catheter into 2×10 mL EDTA containing Vacutainer tubes and RBC's separated by centrifugation.
Plasma specimens (30 μL) were analyzed directly via the combustive procedure without further chemical manipulation. For the purposes of calculating ^14C concentration per volume of plasma, a general carbon content of 45% (dry mass) was applied. The urine was mixed with equal volumes (0.5 mL) of a sucrose carbon diluent solution (200 g/L) and mixed by inversion in a disposable polypropylene centrifuge tube. A 20-μL sample was graphitized for AMS analysis according to standard procedures. The mass fraction of the urine represented in the measured sample was inverted and multipled by the ^14C contents above background derived from the AMS measurement to calculate the ^14C content in the total urine void. A density value of 1 g/mL for urine was assumed to calculate its volume from the recorded masses.
Pharmacokinetic parameters were estimated by noncompartmental analysis employing the PK software WinNonlin version 4.1 (Pharsight Corporation, Palo Alto, Calif.). Statistical analyses were performed using either WinNonlin 4.1 or SPlus 2000 (Insightful Inc, Seattle, Wash.). All parameter calculations are reported from observed values and not from predicted values. However, observed and predicted values were very close and parameter estimates from both approaches were nearly equal.
. Values for the following PK parameters were estimated from plasma alphaHGA concentrations:
Maximum observed concentration (Cmax) and the time to reach Cmax (Tmax), the last quantified concentration (Clast), the time to Clast (Tlast), and time to the first quantified concentration (Tfirst) came from the experimentally observed values.
Terminal elimination rate constant (λz), was estimated from log-linear regression analysis of the apparent terminal phase of the plasma concentration-time profile. Weighting for the regression was 1/Y^2. The associated plasma half-life (T½) was calculated as T½=ln 2/λz. The point employed for estimating λz, were selected by the WinNonlin default curve stripping algorithm. […]

Compound: NC(=O)C(N)O (stereo not drawn) [AlphaHGA, α-Hydroxy-glycinamide hydrochloride]
- AUC % Extrap (all subjects): less than 20%
- terminal elimination half-life in the plasma (following both routes of administration): approximately 10 hours
- absorption (oral administration): rapidly and completely absorbed after oral administration
- AUC % Extrap (plasma, Period 1, Max): 17.43%
- AUCTmax (plasma, Period 1, Max): 0.02396 nM·h
- AUCinf (plasma, Period 1, Max): 0.43166 nM·h
- AUClast (plasma, Period 1, Max): 0.39184 nM·h
- Az (plasma, Period 1, Max): 0.084 h⁻¹
- Clast (plasma, Period 1, Max): 0.00462 nM
- Cmax (plasma, Period 1, Max): 0.0668 nM
- T ½ (plasma, Period 1, Max): 10.32 h
- Tmax (plasma, Period 1, Max): 1.00 h
- AUC % Extrap (plasma, Period 1, Mean): 13.16%
- AUCTmax (plasma, Period 1, Mean): 0.01354 nM·h
- AUCinf (plasma, Period 1, Mean): 0.35555 nM·h
- AUClast (plasma, Period 1, Mean): 0.30901 nM·h
- Az (plasma, Period 1, Mean): 0.074 h⁻¹
- Clast (plasma, Period 1, Mean): 0.0034 nM
- Cmax (plasma, Period 1, Mean): 0.0477 nM
- T ½ (plasma, Period 1, Mean): 9.45 h
- Tmax (plasma, Period 1, Mean): 0.50 h
- AUC % Extrap (plasma, Period 1, Min): 9.23%
- AUCTmax (plasma, Period 1, Min): 0.00422 nM·h
- AUCinf (plasma, Period 1, Min): 0.27962 nM·h
- AUClast (plasma, Period 1, Min): 0.24083 nM·h
- Az (plasma, Period 1, Min): 0.067 h⁻¹
- Clast (plasma, Period 1, Min): 0.00267 nM
- Cmax (plasma, Period 1, Min): 0.0337 nM
- T ½ (plasma, Period 1, Min): 8.26 h
- Tmax (plasma, Period 1, Min): 0.25 h
- AUC % Extrap (plasma, Period 2, Max): 19.51%
- AUCTmax (plasma, Period 2, Max): 0.04903 nM·h
- AUCinf (plasma, Period 2, Max): 0.4907 nM·h
- AUClast (plasma, Period 2, Max): 0.46442 nM·h
- Az (plasma, Period 2, Max): 0.118 h⁻¹
- Clast (plasma, Period 2, Max): 0.00459 nM
- Cmax (plasma, Period 2, Max): 0.076 nM
- T ½ (plasma, Period 2, Max): 12.80 h
- Tmax (plasma, Period 2, Max): 2.00 h
- AUC % Extrap (plasma, Period 2, Mean): 13.94%
- AUCTmax (plasma, Period 2, Mean): 0.01698 nM·h
- AUCinf (plasma, Period 2, Mean): 0.3847 nM·h
- AUClast (plasma, Period 2, Mean): 0.33218 nM·h
- Az (plasma, Period 2, Mean): 0.073 h⁻¹
- Clast (plasma, Period 2, Mean): 0.00356 nM
- Cmax (plasma, Period 2, Mean): 0.0574 nM
- T ½ (plasma, Period 2, Mean): 10.06 h
- Tmax (plasma, Period 2, Mean): 0.59 h
- AUC % Extrap (plasma, Period 2, Min): 5.36%
- AUCTmax (plasma, Period 2, Min): 0.00615 nM·h
- AUCinf (plasma, Period 2, Min): 0.32388 nM·h
- AUClast (plasma, Period 2, Min): 0.27076 nM·h
- Az (plasma, Period 2, Min): 0.054 h⁻¹
- Clast (plasma, Period 2, Min): 0.00292 nM
- Cmax (plasma, Period 2, Min): 0.0392 nM
- T ½ (plasma, Period 2, Min): 5.88 h
- Tmax (plasma, Period 2, Min): 0.25 h
- AUC % Extrap (plasma, Route iv, Max): 19.51%
- AUCTmax (plasma, Route iv, Max): 0.02396 nM·h
- AUCinf (plasma, Route iv, Max): 0.43166 nM·h
- AUClast (plasma, Route iv, Max): 0.39184 nM·h
- Az (plasma, Route iv, Max): 0.084 h⁻¹
- Clast (plasma, Route iv, Max): 0.00462 nM
- Cmax (plasma, Route iv, Max): 0.0722 nM
- T ½ (plasma, Route iv, Max): 12.80 h
